Results as given in US10329532B2, “Method to direct differentiation of pluripotent stem cells into functional heart muscle” (GEORG-AUGUST-UNIVERSITÄT GÖTTINGEN STIFTUNG ÖFFENTLICHEN …, priority 2013, dated 2019).
“Also recorded” adds a separate entry of the source. Where two headings read alike, the source gives them in different places.

How the values were obtained:
Type in all cases: cell-based, human
[1] = system: bioengineered heart muscle (BHM); experiment: Isometric contraction measurements of BHM (twitch tension/force of contraction) in organ baths; settings: for twitch tension/force of contraction: growth factor added during cardiac maturation (FGF2: 10 ng/mL, TGFb1: 1 ng/mL)
Protocol: Briefly, contraction experiments are performed in organ baths at 37° C. under constant bubbling with 5% CO2 and 95% O2 to maintain a physiological pH in Tyrode's solution containing (all in mM): 120 NaCl, 1 MgCl2, 0.2 CaCl2, 5.4 KCl, 22.6 NaHCO3, 4.2 NaH2PO4, 5.6 glucose and 0.56 ascorbate. Calcium is adjusted using a 0.2 M calcium chloride solution. All BHM are analysed at 3 Hz with 5 ms square pulses of 200 mA electrical current in order to pace at approximately the embryonic heart rate. Stimulation frequency is altered to confirm proper force-frequency response (Bowditch mechanism). BHM are mechanically stretched at intervals of 125 μm until the maximum twitch force is observed (force-length response; Frank-Starling mechanism).
Briefly, all contraction experiments are performed in organ baths at 37° C. and physiological pH in Tyrode's solution containing (all in mM): 120 NaCl, 1 MgCl2, 0.2 CaCl2, 5.4 KCl, 22.6 NaHCO3, 4.2 NaH2PO4, 5.6 glucose and 0.56 ascorbate. Calcium is adjusted using a 0.2 M calcium chloride solution. All BHM are analysed at 3 Hz with 5 ms square pulses of 200 mA electrical current in order to pace at approximately the embryonic heart rate. Stimulation frequency is altered to confirm proper force-frequency response (Bowditch mechanism). BHM are mechanically stretched at intervals of 125 μm until the maximum twitch force is observed at 2 mM calcium (Frank-Starling mechanism). Subsequently, BHM are subjected to different calcium concentrations (0.2, 0.4, 0.8, 1.2, 1.6, 2.0, 2.4 mM) and the twitch force is recorded. For isoprenaline experiments the calcium concentration is adjusted to 0.6 mM and subsequently the isoprenaline concentration is adjusted to 1 μM.
(§1) BHM formation was optimized on the HES2 line. HES2 hPSCs were suspended 1:1 in PSC-medium minus FGF-2 and HFF-conditioned medium (HFF-CM—harvested from 5 day confluent irradiated HFF cultures) with 10 ng/mL FGF2 and mixed with a collagen I hydrogel. For the HES3, and hIPS lines 10 μM Y-27632 was also added to the medium. The collagen I matrix was formulated with acid-soluabilized bovine collagen I (Devro) with an equi-volume of 2×DMEM (Gibco) and neutralized using 0.1 M sodium hydroxide. The hPSC/collagen I matrix was formulated to give a final collagen I concentration of 1 mg/ml and 5×10^5 hPSC per 170 μl. For the HES3 and hIPS lines 1×10^6 and 0.5×10^6 cells were used respectively per 170 μl. For each BHM, 170 μl of the hPSC/collagen I matrix was pipette into circular molds (i.d.=4 mm, o.d.=10 mm) fabricated using poly(dimethylsiloxane) (Sylgard, Dow Corning). After 10 min of culture in the incubator at 37° C. the collagen gelled and 1.25 ml of 1:1 human foreskin fibroblast-conditioned medium with 10 ng/ml FGF2 was added per BHM. The following day the BHMs were rinsed with RPMI medium and then differentiated as indicated in each figure, with 1.25 ml of medium per BHM. At day 13 the BHM were transferred onto mechanical stimulators as indicated. The protocol details for each figure are outlined in FIG. 8.
Contraction experiments were performed in organ baths at 37° C. and continuous bubbling with 5% CO2/95% O2 to maintain a physiological pH in Tyrode's solution containing (all in mM): 120 NaCl, 1 MgCl2, 0.2 CaCl2, 5.4 KCl, 22.6 NaHCO3, 4.2 NaH2PO4, 5.6 glucose and 0.56 ascorbate. Calcium was adjusted using a 0.2 M calcium chloride solution. All BHM were first analysed at 3 Hz with 5 ms square pulses of 200 mA in order to pace at approximately the embryonic heart rate. BHM were mechanically stretched at intervals of 125 μm until Lmax, i.e. the tissue length were maximum twitch tension/force of contraction was recorded in the presence of maximally inotropically active calcium concentrations (2 mmol/L; Frank-Starling mechanism). Subsequently, BHM were subjected to different calcium concentrations (0.2, 0.4, 0.8, 1.2, 1.6, 2.0, 2.4 mM) and the twitch force recorded. […]

[2] = system: bioengineered heart muscle (BHM); experiment: Flow cytometry of disassociated BHM (cell composition, cardiomyocyte size, cell cycle, cell number); settings: for cardiomyocyte size: growth factor added during cardiac maturation (FGF2: 10 ng/mL, TGFb1: 1 ng/mL)
Protocol: as §1
For the initial BHM digestion protocol, BHMs were disassociated in 0.025 mg/ml Liberase TM (Roche), 30 mM 2,3-butanedione monoxime at 37° C. for 60 min in PBS. To preserve cell surface markers, BHM was disassociated using the same protocol as for the 2D digestion.
(§2) Cells were stained either live or fixed using Histofix for 10 min at room temperature or ethanol. The cells were stained in 5% FBS in PBS (membrane blocking buffer) for cell surface markers (excluding TRA-1-60) and blocking buffer for internal markers. The cells were then stained with primary antibodies in blocking buffer for 45 min followed by secondary antibodies in blocking buffer and Hoechst for 30 min at 4° C. (Table 2). A BD LSRII was used for flow cytometry analysis (BD Biosystems). Live cells populations were gated based on forward-side scatter profiles; fixed cells populations were gated based on Hoechst staining. BD FACSDiva Software (BD Bioscience) or Cyflologic v1.2.1 (Cyflo Ltd) were used for analysis.

[3] = system: bioengineered heart muscle (BHM); experiment: qPCR gene expression in BHM; settings: for pathological hypertrophy marker ANP expression / β-MHC/α-MHC expression ratio: growth factor added during cardiac maturation (FGF2: 10 ng/mL, TGFb1: 1 ng/mL)
Protocol: as §1
(§3) Cells, BHMs or human heart biopsies were harvested and stored at −80° C. until RNA extraction using Trizol following manufacturer's instructions (Applied Biosystems). 1 μg of RNA was then treated with DNAse (Roche) followed by cDNA synthesis using a High Capacity cDNA Reverse Transcription Kit (Applied Biosystems). qPCR was performed using Fast SYBR Green Master Mix (Applied Biosystems) on a 384-well format AB7900 HT (Applied Biosystems). Gene expression was normalized using 2^−ΔCt or 2^−ΔΔCt using GAPDH as the housekeeping gene which we found to be consistently expressed between conditions in all of our experiments. Primer details are given in below Table 1.

HES2 hPSCs = experiment: 2D cardiac differentiation of hPSC (MESP1 qPCR day 3, α-actinin flow cytometry day 16, beating activity)
From the text: For this reason a cardiac differentiation protocol was firstly required which consistently produced cardiomyocytes and fibroblasts/stromal cells. The inventors optimized their cardiac differentiation protocol (FIG. 1a) for both yield and consistency, based on a previously published serum-free 2D hPSC differentiation protocol (Hudson et al. Stem Cells Dev 21, 1513-1523 (2012)). It was reasoned that robustness and efficiency could be enhanced if WNT activity was stabilized during the mesoderm induction phase. As surrogate marker for mesoderm induction MESP1 expression was analysed by qPCR on culture day 3; this was followed by flow cytometry for α-actinin (cardiomyocyte marker) at day 16, which were found correlated very well with the amount of beating activity.
Cardiac differentiation was optimized on the HES2 line. HES2 hPSCs were plated at 5×10^4 cells/cm^2 (1×10^5 cells/cm^2 for HES3 and hIPS lines) on 1:30 Matrigel/PBS coated-plates and cultured in 1:1 PSC-medium minus FGF-2 and HFF-conditioned medium (HFF-CM—harvested from 5 day confluent irradiated HFF cultures) with 10 ng/mL FGF2. For the hIPS line 10 μM Y-27632 was added to this medium. After 1 day the cells were rinsed with RPMI medium, then differentiated as indicated in each figure with 0.5 ml of medium in each well of a 24 well plate. The protocol details for each figure are outlined in FIG. 8.
as §3, §2

[4] = ASC-2-P during the entire differentiation protocol, data not shown
[5] = calcium adjusted to 1.2 mM during cardiac maturation

Molecule: TGFβ1: growth factor TGFβ1 (Peprotech)
- twitch tension/force of contraction [1]: trend to increased twitch tension
- contractile function of BHM (FOC: force of contraction) ([1]; increasing TGFβ-1 during cardiac maturation phase, 0.3-10 ng/ml tested): enhances contractile function of BHM; also recorded: enhancement of contractile function of BHM in a concentration dependent manner
- cardiomyocyte size [2]: increase in cardiomyocyte size
- pathological hypertrophy marker ANP expression [3]: decreased
- β-MHC/α-MHC expression ratio [3]: more mature β-MHC/α-MHC expression ratio

Molecule: L-ascorbic acid 2 phosphate sesquimagnesium salt hydrate [ASC-2-P, reference compound]
- BHM twitch tension/force of contraction ([1]; ASC-2-P supplemented during early BHM culture, days 0-13): significantly improved
- cardiac differentiation efficiency in 2D protocol (HES2 hPSCs; [4]): without changes in cardiac differentiation efficiency
- number of cells in 2D protocol (HES2 hPSCs; [4]): significantly increasing the number of cells
- cardiomyocyte fraction ([2]; ASC-2-P supplemented days 0-13): trend to increased cardiomyocyte fraction
- stromal cell fraction ([2]; ASC-2-P supplemented days 0-13): no change in the stromal cell fraction

Molecule: [Ca+2] [calcium]
- EC50 ([1]; 29-30 day old BHM (increased culture time), read-out: calcium EC50 (twitch tension)): 700 µM
- EC50 ([1]; 22 day old BHM (previous data), read-out: calcium EC50 (twitch tension)): 200 µM
- elastic modulus [1, 5]: increase
- resting tension [1, 5]: increase in resting tension
- twitch tension of the BHM ([1]; calcium adjusted to 1.2 mM during cardiac maturation (RPMI 0.42 mM)): greatly increased the twitch tension
- EC50 ([1]; characteristic of the BHM obtained by the method, read-out: calcium EC50): > 200 µM
- calcium handling proteins by qPCR (CASQ2, PLN, ATP2A2, RYR2) ([3]; calcium adjusted to 1.2 mM, data not shown): no changes in calcium handling proteins

Molecule: c1cc(-c2cnn3cc(-c4ccc(OCCN5CCCCC5)cc4)cnc23)ccn1 [dorsomorphin, reference compound]
- twitch tension/force of contraction, % of the control group ([1]; 2 μmol/L dorsomorphin with each medium exchange from day 6 onwards): 47%

Molecule: CC(C)NCC(O)c1ccc(O)c(O)c1 (stereo not shown) [isoprenaline, reference compound]
- inotropic response with extended culture ([1]; 1 μM isoprenaline, 29-30 day vs 22 day old BHM, paced at 0.6 mM calcium): increased inotropic response
- inotropic response ([1]; 1 μM isoprenaline, paced conditions at 0.6 mM calcium): more than 40 μN

Molecule: Cc1c[nH]c(-c2cnc(NCCNc3ccc(C#N)cn3)nc2-c2ccc(Cl)cc2Cl)n1 [CHIR, CHIR99021, reference compound]
- beating activity (HES2 hPSCs; CHIR alone or with the differentiation factors used in FIG. 1b,c): unable to induce any beating activity

Molecule: FGF2: growth factor FGF2 (Miltenyi Biotec)
- twitch tension/force of contraction [1]: trend to decreased twitch tension
- α-actinin (HES2 hPSCs; 5 ng/ml FGF2 during the first 3 days of differentiation, flow cytometry day 16): trend to increased α-actinin
- MESP1 expression (HES2 hPSCs; 5 ng/ml FGF2 during the first 3 days of differentiation, qPCR day 3): trend to increased MESP1 expression
- cardiomyocyte size [2]: increase in cardiomyocyte size
- pathological hypertrophy marker ANP expression [3]: induced (variably) pathological hypertrophy marker ANP
- β-MHC/α-MHC expression ratio [3]: did not change β-MHC/α-MHC expression ratio

B1: BMP4: growth factor BMP4 (R&D Systems) (protein, UniProt P12644 293-408, looked up)
Bone morphogenetic protein 4: SPKHHSQRARKKNKNCRRHSLYVDFSDVGWNDWIVAPPGYQAFYCHGDCPFPLADHLNSTNHAIVQTLVNSVNSSIPKACCVPTELSAISMLYLDEYDKVVLKNYQEMVVEGCGCR
- BMP4 concentration giving optimal and consistent induction of MESP1 and α-actinin expression (HES2 hPSCs; BMP4 concentration varied whilst CHIR is present): 5 ng/mL
